Data: PMC5218480 (PLoS ONE, 2017)

Tested on: MV-4-11 cells
Experiment: Gene expression microarray analysis (Affymetrix PrimeView) and GSEA
Format: cell-based, human
Design: RFU PODN (11730768_x_at) / Fold change /veh PODN (11730768_x_at) / RFU LINC00158 (11744669_a_at) / Fold change /veh LINC00158 (11744669_a_at) / RFU DUSP10 (11751237_a_at) / Fold change /veh DUSP10 (11751237_a_at) / RFU ID3 (11757404_x_at) / Fold change /veh ID3 (11757404_x_at) / RFU PLEKHG5 (11737974_s_at) / Fold change /veh PLEKHG5 (11737974_s_at) / RFU LRRC4B (11730491_at) / Fold change /veh LRRC4B (11730491_at) / RFU GIMAP4 (11747438_a_at) / Fold change /veh GIMAP4 (11747438_a_at) / RFU KRT8 (11758183_x_at) / Fold change /veh KRT8 (11758183_x_at) / RFU CNN1 (11734310_a_at) / Fold change /veh CNN1 (11734310_a_at) / RFU VPS37D (11726825_at) / Fold change /veh VPS37D (11726825_at) / RFU C10orf10 (11716522_x_at) / Fold change /veh C10orf10 (11716522_x_at) / RFU KIR2DL2 /// KIR2DL4 /// KIR2DL5A /// KIR2DL5B /// KIR2DS1 /// KIR2DS2 /// KIR2DS3 /// KIR2DS4 /// KIR3DL3 /// KIR3DL3 /// KIR3DS1 (11738374_at) / Fold change /veh KIR2DL2 /// KIR2DL4 /// KIR2DL5A /// KIR2DL5B /// KIR2DS1 /// KIR2DS2 /// KIR2DS3 /// KIR2DS4 /// KIR3DL3 /// KIR3DL3 /// KIR3DS1 (11738374_at) / RFU C1QL1 (11718748_at) / Fold change /veh C1QL1 (11718748_at) / RFU TMPRSS4 (11747572_a_at) / Fold change /veh TMPRSS4 (11747572_a_at) / RFU HAMP (11756126_x_at) / Fold change /veh HAMP (11756126_x_at) / RFU RNFT2 (11725882_a_at) / Fold change /veh RNFT2 (11725882_a_at) / RFU NR4A2 (11747474_a_at) / Fold change /veh NR4A2 (11747474_a_at) / RFU ABCC12 (11746883_a_at) / Fold change /veh ABCC12 (11746883_a_at) / RFU TMEM136 (11760407_x_at) / Fold change /veh TMEM136 (11760407_x_at) / RFU CLDN22 /// WWC2 (11732394_at) / Fold change /veh CLDN22 /// WWC2 (11732394_at) / RFU HLA-DPB1 (11760878_x_at) / Fold change /veh HLA-DPB1 (11760878_x_at) / RFU SPINT1 (11716480_a_at) / Fold change /veh SPINT1 (11716480_a_at) / RFU GAP43 (11754022_s_at) / Fold change /veh GAP43 (11754022_s_at) / RFU A4GNT (11735810_at) / Fold change /veh A4GNT (11735810_at) / RFU PRB3 (11715151_x_at) / Fold change /veh PRB3 (11715151_x_at) / RFU TUBB4B (11761932_at) / Fold change /veh TUBB4B (11761932_at) / RFU CAPN14 (11732068_a_at) / Fold change /veh CAPN14 (11732068_a_at) / RFU TMCC2 (11721928_a_at) / Fold change /veh TMCC2 (11721928_a_at) / RFU IRGQ (11745062_a_at) / Fold change /veh IRGQ (11745062_a_at) / RFU FAM174B (11720279_a_at) / Fold change /veh FAM174B (11720279_a_at) / RFU TMPRSS4 (11748680_a_at) / Fold change /veh TMPRSS4 (11748680_a_at) / RFU FAM212B (11763350_a_at) / Fold change /veh FAM212B (11763350_a_at) / RFU PLEKHG5 (11743358_a_at) / Fold change /veh PLEKHG5 (11743358_a_at) / RFU ZSCAN30 (11745921_a_at) / Fold change /veh ZSCAN30 (11745921_a_at) / RFU CMKLR1 (11741424_a_at) / Fold change /veh CMKLR1 (11741424_a_at) / RFU LOC101060620 /// MAPK8IP1 (11723275_at) / Fold change /veh LOC101060620 /// MAPK8IP1 (11723275_at) / RFU SPTSSB (11747773_x_at) / Fold change /veh SPTSSB (11747773_x_at) / RFU PRSS12 (11739890_at) / Fold change /veh PRSS12 (11739890_at) / RFU BIN1 (11741810_x_at) / Fold change /veh BIN1 (11741810_x_at) / RFU WNT11 (11732464_a_at) / Fold change /veh WNT11 (11732464_a_at) / RFU C10orf10 (11716521_a_at) / Fold change /veh C10orf10 (11716521_a_at) / RFU C5orf56 (11738089_at) / Fold change /veh C5orf56 (11738089_at) / RFU CYB561 (11721691_x_at) / Fold change /veh CYB561 (11721691_x_at) / RFU ANKRD19P (11752326_a_at) / Fold change /veh ANKRD19P (11752326_a_at) / RFU OR2T12 /// OR2T33 /// OR2T8 (11738714_s_at) / Fold change /veh OR2T12 /// OR2T33 /// OR2T8 (11738714_s_at) / RFU VCAN (11748164_a_at) / Fold change /veh VCAN (11748164_a_at) / RFU JSRP1 (11732532_at) / Fold change /veh JSRP1 (11732532_at) / RFU KRTAP10-11 (11738290_x_at) / Fold change /veh KRTAP10-11 (11738290_x_at) / RFU MYO3A (11730013_a_at) / Fold change /veh MYO3A (11730013_a_at) / RFU EBF3 (11725865_a_at) / Fold change /veh EBF3 (11725865_a_at) / RFU CAMK2N1 (11719241_x_at) / Fold change /veh CAMK2N1 (11719241_x_at) / RFU C5orf56 (11738088_a_at) / Fold change /veh C5orf56 (11738088_a_at) / RFU OLFML3 (11715873_a_at) / Fold change /veh OLFML3 (11715873_a_at) / RFU LOC100653217 /// NTM (11731650_a_at) / Fold change /veh LOC100653217 /// NTM (11731650_a_at) / RFU MAPK11 (11762145_a_at) / Fold change /veh MAPK11 (11762145_a_at) / RFU FIZ1 (11724087_x_at) / Fold change /veh FIZ1 (11724087_x_at) / RFU OASL (11726364_x_at) / Fold change /veh OASL (11726364_x_at) / RFU SOX15 (11748057_x_at) / Fold change /veh SOX15 (11748057_x_at) / RFU CD79A (11719716_a_at) / Fold change /veh CD79A (11719716_a_at) / RFU HIST1H1D (11736915_at) / Fold change /veh HIST1H1D (11736915_at) / RFU CASKIN2 (11723855_a_at) / Fold change /veh CASKIN2 (11723855_a_at) / RFU LOC730098 (11760151_x_at) / Fold change /veh LOC730098 (11760151_x_at) / RFU OR4N2 (11742367_at) / Fold change /veh OR4N2 (11742367_at) / RFU PRRT2 (11749266_a_at) / Fold change /veh PRRT2 (11749266_a_at) / RFU SNX32 (11753110_a_at) / Fold change /veh SNX32 (11753110_a_at) / RFU CDHR5 (11726645_a_at) / Fold change /veh CDHR5 (11726645_a_at) / RFU RCAN1 (11760418_a_at) / Fold change /veh RCAN1 (11760418_a_at) / RFU FAM167A (11723789_a_at) / Fold change /veh FAM167A (11723789_a_at) / RFU FAM26E (11764081_at) / Fold change /veh FAM26E (11764081_at) / RFU ISYNA1 (11749810_s_at) / Fold change /veh ISYNA1 (11749810_s_at) / RFU ACY1 (11761880_at) / Fold change /veh ACY1 (11761880_at) / RFU 11764098_at / Fold change /veh 11764098_at / RFU SAMD14 (11745864_x_at) / Fold change /veh SAMD14 (11745864_x_at) / RFU NPB (11741838_a_at) / Fold change /veh NPB (11741838_a_at) / RFU TMPRSS6 (11731388_a_at) / Fold change /veh TMPRSS6 (11731388_a_at) / RFU KRTAP10-2 (11738614_at) / Fold change /veh KRTAP10-2 (11738614_at) / RFU ARHGAP8 /// PRR5-ARHGAP8 (11727945_x_at) / Fold change /veh ARHGAP8 /// PRR5-ARHGAP8 (11727945_x_at) / RFU KRTAP5-7 /// NADSYN1 (11734609_at) / Fold change /veh KRTAP5-7 /// NADSYN1 (11734609_at) / RFU RASL12 (11751679_a_at) / Fold change /veh RASL12 (11751679_a_at) / RFU CDKN2B (11736163_a_at) / Fold change /veh CDKN2B (11736163_a_at) / RFU PRF1 (11729649_at) / Fold change /veh PRF1 (11729649_at) / RFU, ZNF638 /// ZNF638-IT1 / Fold change vs veh, ZNF638 /// ZNF638-IT1 / RFU, PANK3 / Fold change vs veh, PANK3 / RFU, SH3YL1 / Fold change vs veh, SH3YL1 / RFU, ZEB2 / Fold change vs veh, ZEB2 / RFU, NRIP1 / Fold change vs veh, NRIP1 / RFU, PTTG1IP / Fold change vs veh, PTTG1IP / RFU, CAPN2 / Fold change vs veh, CAPN2 / RFU, MED14 / Fold change vs veh, MED14 / RFU, SNORA58 / Fold change vs veh, SNORA58 / RFU, C1orf63 / Fold change vs veh, C1orf63 / RFU, LRRFIP1 / Fold change vs veh, LRRFIP1 / RFU, NDUFAF7 / Fold change vs veh, NDUFAF7 / RFU, SLC12A2 / Fold change vs veh, SLC12A2 / RFU, IBTK / Fold change vs veh, IBTK / RFU, ESF1 / Fold change vs veh, ESF1 / Fold change vs veh, TMEM50B / RFU, TAOK1 / Fold change vs veh, TAOK1 / RFU, ACBD3 / Fold change vs veh, ACBD3 / RFU, TMA16 / Fold change vs veh, TMA16 / RFU, RWDD3 / Fold change vs veh, RWDD3 / RFU, BCAT1 / Fold change vs veh, BCAT1 / RFU, EDEM3 / Fold change vs veh, EDEM3 / RFU, TMEM33 / Fold change vs veh, TMEM33 / RFU, WDR75 / Fold change vs veh, WDR75 / RFU, AHCTF1 / Fold change vs veh, AHCTF1 / RFU, TFRC / Fold change vs veh, TFRC / RFU, ZDHHC17 / Fold change vs veh, ZDHHC17 / RFU, NOM1 / Fold change vs veh, NOM1 / RFU, ARL8B / Fold change vs veh, ARL8B / RFU, ZBTB11 / Fold change vs veh, ZBTB11 / RFU, TAMM41 / Fold change vs veh, TAMM41 / RFU, KIAA1704 /// LOC100996395 / Fold change vs veh, KIAA1704 /// LOC100996395 / RFU, ING1 / Fold change vs veh, ING1 / RFU, TRMT61B / Fold change vs veh, TRMT61B / RFU, FUBP3 / Fold change vs veh, FUBP3 / RFU, TP53 / Fold change vs veh, TP53 / RFU, TNKS2 / Fold change vs veh, TNKS2 / RFU, ZFP14 / Fold change vs veh, ZFP14 / RFU, ACTR2 / Fold change vs veh, ACTR2 / RFU, PPP3R1 / Fold change vs veh, PPP3R1 / RFU, PIK3R1 / Fold change vs veh, PIK3R1 / RFU, HNRNPA1 / Fold change vs veh, HNRNPA1 / RFU, RNF170 / Fold change vs veh, RNF170 / RFU, ZNF28 / Fold change vs veh, ZNF28 / RFU, RNGTT / Fold change vs veh, RNGTT / RFU, OGT / Fold change vs veh, OGT / RFU, BRD1 / Fold change vs veh, BRD1 / RFU, MARS / Fold change vs veh, MARS / RFU, ZNF655 / Fold change vs veh, ZNF655 / RFU, FAHD1 / Fold change vs veh, FAHD1 / RFU, BDP1 / Fold change vs veh, BDP1 / RFU, LRRCC1 / Fold change vs veh, LRRCC1 / RFU, ARID1A / Fold change vs veh, ARID1A / RFU, ZNF146 / Fold change vs veh, ZNF146 / RFU, ZNF330 / Fold change vs veh, ZNF330 / RFU, GPN3 / Fold change vs veh, GPN3 / RFU, C9orf123 / Fold change vs veh, C9orf123 / RFU, N4BP2L2 / Fold change vs veh, N4BP2L2 / RFU, ARFIP1 / Fold change vs veh, ARFIP1 / RFU, FAM179B / Fold change vs veh, FAM179B / RFU, BCL10 / Fold change vs veh, BCL10 / RFU, UHRF1BP1L / Fold change vs veh, UHRF1BP1L / RFU, BET1 / Fold change vs veh, BET1 / RFU, CNOT2 / Fold change vs veh, CNOT2 / RFU, ZNF268 / Fold change vs veh, ZNF268 / Fold change vs veh, ZNF507 / RFU, DGCR2 / Fold change vs veh, DGCR2 / RFU, WDSUB1 / Fold change vs veh, WDSUB1 / Fold change vs veh, HSP90B1 /// MIR3652 / RFU, ADSS / Fold change vs veh, ADSS / RFU, GK / Fold change vs veh, GK / RFU, ZNF148 / Fold change vs veh, ZNF148 / RFU, TAF9 / Fold change vs veh, TAF9 / RFU, SLC1A5 / Fold change vs veh, SLC1A5 / RFU, SLMO2 / Fold change vs veh, SLMO2 / RFU, ABCC4 / Fold change vs veh, ABCC4 / RFU, LOC101060439 /// RAP1B / Fold change vs veh, LOC101060439 /// RAP1B / RFU, RFX7 / Fold change vs veh, RFX7 / RFU, GTPBP10 / Fold change vs veh, GTPBP10 / RFU, CNEP1R1 / Fold change vs veh, CNEP1R1 / RFU, BIVM-ERCC5 /// ERCC5 / Fold change vs veh, BIVM-ERCC5 /// ERCC5 / RFU, ILF3 / Fold change vs veh, ILF3 / RFU 11762660_at / Fold change /veh 11762660_at / RFU VCAN (11757783_s_at) / Fold change /veh VCAN (11757783_s_at) / RFU DDX43 (11728927_at) / Fold change /veh DDX43 (11728927_at) / RFU KRT8 (11758188_x_at) / Fold change /veh KRT8 (11758188_x_at) / RFU NKD1 (11759106_at) / Fold change /veh NKD1 (11759106_at) / RFU SRD5A1 (11742802_a_at) / Fold change /veh SRD5A1 (11742802_a_at) / RFU TPSAB1 /// TPSB2 (11721975_s_at) / Fold change /veh TPSAB1 /// TPSB2 (11721975_s_at) / RFU GSTM3 (11746129_a_at) / Fold change /veh GSTM3 (11746129_a_at) / RFU IL23R (11737362_x_at) / Fold change /veh IL23R (11737362_x_at) / RFU TMEM51 (11727254_a_at) / Fold change /veh TMEM51 (11727254_a_at) / RFU PIWIL2 (11732686_x_at) / Fold change /veh PIWIL2 (11732686_x_at) / RFU ORM1 (11744905_x_at) / Fold change /veh ORM1 (11744905_x_at) / RFU CCDC152 (11743942_at) / Fold change /veh CCDC152 (11743942_at) / RFU ECM1 (11717891_a_at) / Fold change /veh ECM1 (11717891_a_at) / RFU IL23R (11748794_a_at) / Fold change /veh IL23R (11748794_a_at) / RFU TNFAIP8L3 (11732012_x_at) / Fold change /veh TNFAIP8L3 (11732012_x_at) / RFU MBOAT4 (11741988_at) / Fold change /veh MBOAT4 (11741988_at) / RFU 11764193_at / Fold change /veh 11764193_at / RFU TMEM53 (11763286_at) / Fold change /veh TMEM53 (11763286_at) / RFU MAGEB2 (11727129_at) / Fold change /veh MAGEB2 (11727129_at) / RFU TMEM200A (11744735_a_at) / Fold change /veh TMEM200A (11744735_a_at) / RFU CCDC152 (11751479_a_at) / Fold change /veh CCDC152 (11751479_a_at) / RFU FAM211A (11726209_a_at) / Fold change /veh FAM211A (11726209_a_at) / RFU RGS16 (11746705_a_at) / Fold change /veh RGS16 (11746705_a_at) / RFU VCAN (11755009_s_at) / Fold change /veh VCAN (11755009_s_at) / RFU RHOB (11743442_s_at) / Fold change /veh RHOB (11743442_s_at) / RFU RGS16 (11720943_a_at) / Fold change /veh RGS16 (11720943_a_at) / RFU RGS16 (11720944_at) / Fold change /veh RGS16 (11720944_at) / RFU, VPS4B / Fold change vs veh, VPS4B / RFU, CREB1 / Fold change vs veh, CREB1 / RFU, DNAJC13 / Fold change vs veh, DNAJC13 / RFU, GNAQ / Fold change vs veh, GNAQ / RFU, CDK5R1 / Fold change vs veh, CDK5R1 / RFU, ZRANB3 / Fold change vs veh, ZRANB3 / RFU, CUL4A / Fold change vs veh, CUL4A / RFU, CCNY / Fold change vs veh, CCNY / RFU, UFL1 / Fold change vs veh, UFL1 / RFU, COG3 / Fold change vs veh, COG3 / RFU, DIAPH2 / Fold change vs veh, DIAPH2 / RFU, SKA2 / Fold change vs veh, SKA2 / RFU, AFF3 / Fold change vs veh, AFF3 / RFU, LMF1 / Fold change vs veh, LMF1 / RFU, IPO11 / Fold change vs veh, IPO11 / RFU, DFFB / Fold change vs veh, DFFB / RFU, FOXP1 / Fold change vs veh, FOXP1 / RFU, CARD8 / Fold change vs veh, CARD8 / RFU, STRN3 / Fold change vs veh, STRN3 / RFU, ADK / Fold change vs veh, ADK / RFU, RASSF2 / Fold change vs veh, RASSF2 / RFU, WIPF1 / Fold change vs veh, WIPF1 / RFU, LARP1B / Fold change vs veh, LARP1B / RFU, RASA1 / Fold change vs veh, RASA1 / RFU, RB1 / Fold change vs veh, RB1 / RFU, PPFIA1 / Fold change vs veh, PPFIA1 / RFU, MAT2A / Fold change vs veh, MAT2A / RFU, CCT5 / Fold change vs veh, CCT5 / RFU, WDR92 / Fold change vs veh, WDR92 / RFU, CUX1 / Fold change vs veh, CUX1 / RFU, TTC7A / Fold change vs veh, TTC7A / RFU, TMEM135 / Fold change vs veh, TMEM135 / RFU, DEPTOR / Fold change vs veh, DEPTOR / RFU, CPM / Fold change vs veh, CPM / RFU, DNAJB6 / Fold change vs veh, DNAJB6 / RFU, CACNA2D3 / Fold change vs veh, CACNA2D3 / RFU, DTX4 / Fold change vs veh, DTX4 / RFU, TFCP2 / Fold change vs veh, TFCP2 / RFU, GMCL1 /// GMCL1P1 / Fold change vs veh, GMCL1 /// GMCL1P1 / RFU, AEBP2 / Fold change vs veh, AEBP2 / RFU, SNHG1 /// SNORD22 /// SNORD25 /// SNORD26 /// SNORD27 /// SNORD28 /// SNORD29 /// SNORD31 / Fold change vs veh, SNHG1 /// SNORD22 /// SNORD25 /// SNORD26 /// SNORD27 /// SNORD28 /// SNORD29 /// SNORD31 / Fold change (Aza/veh), C12orf56 (ProbeSet 11735607_a_at) / Fold change (ACY-1035/veh), C12orf56 (ProbeSet 11735607_a_at) / Fold change (Aza/veh), FGFR1OP (ProbeSet 11751329_s_at) / Fold change (ACY-1035/veh), FGFR1OP (ProbeSet 11751329_s_at) / Fold change (Aza/veh), VPS36 (ProbeSet 11739960_a_at) / Fold change (ACY-1035/veh), VPS36 (ProbeSet 11739960_a_at) / RFU SYPL1 (11715823_x_at) / Fold change /veh SYPL1 (11715823_x_at) / RFU IGFBP7 (11715501_s_at) / Fold change /veh IGFBP7 (11715501_s_at) / RFU REEP3 (11722064_at) / Fold change /veh REEP3 (11722064_at) / RFU IGLL1 (11728026_x_at) / Fold change /veh IGLL1 (11728026_x_at): dose or concentration left out as unconfirmed
Conditions: ProbeSet 11745260_x_at; LIST B

Compound: Nc1ncn([C@@H]2O[C@H](CO)[C@@H](O)[C@H]2O)c(=O)n1 [azacitidine]
- Fold change vs veh, SLC12A2: 0.91
